Measured values reported in patent US20230183259A1, “Crystal Form Of Thiofuran Pyridazine Compound, Preparation Method Therefor And Application Thereof” (ZHEJIANG MEDICINE CO., LTD. XINCHANG PHARMACEUTICAL FACTORY, priority 2020, published 2023).

Assays:
[1] = acceleration test (stability); format: physicochemical; settings: 40° C.±2° C., relative humidity 75%±5%
Description: (§1) Stability tests were performed on the samples of Examples 1, 2, 3, 4 and 5. […] Please refer to the results of the acceleration test (40° C.±2° C., relative humidity 75%±5%) of Table 1 and the results of the long-term stability test (25° C.±2° C., relative humidity 60%±10%) of Table 2.

long-term stability test = format: physicochemical; settings: 25° C.±2° C., relative humidity 60%±10%
Description: as §1

(S)-2-(4-fluorophenyl)-4-(piperidine-3-aminomethyl)thieno[2,3-d]pyridazine-7-carboxamide hydrochloride [Example 110601-2]
(%) Impurity B (%) ([1]; 0 month): 0.00% | Crystal form ([1]; 0 month): unchanged | appearance ([1]; 0 month): yellow crystalline powder | Enantiomer (%) ([1]; 0 month, hydrochloride): 0.09% | Impurity A (%) ([1]; 0 month, hydrochloride): 0.32% | Impurity C (%) ([1]; 0 month, hydrochloride): 0.02% | Loss on drying (%) ([1]; 0 month, hydrochloride): 7.3% | Single largest impurity (%) ([1]; 0 month, hydrochloride): 0.02% | Total relevant substances (%) ([1]; 0 month, hydrochloride): 0.42% | content(%) ([1]; 0 month, hydrochloride): 98.7% | Crystal form ([1]; 1 month): unchanged | Impurity C (%) ([1]; 1 month): 0.02% | appearance ([1]; 1 month): yellow crystalline powder | (%) Impurity B (%) ([1]; 1 month, hydrochloride): 0.03% | Enantiomer (%) ([1]; 1 month, hydrochloride): 0.12% | Impurity A (%) ([1]; 1 month, hydrochloride): 0.28% | Loss on drying (%) ([1]; 1 month, hydrochloride): 7.3% | Single largest impurity (%) ([1]; 1 month, hydrochloride): 0.03% | Total relevant substances (%) ([1]; 1 month, hydrochloride): 0.42% | content(%) ([1]; 1 month, hydrochloride): 99.5% | Crystal form ([1]; 2 months): unchanged | appearance ([1]; 2 months): yellow crystalline powder | (%) Impurity B (%) ([1]; 2 months, hydrochloride): 0.04% | Enantiomer (%) ([1]; 2 months, hydrochloride): 0.1% | Impurity A (%) ([1]; 2 months, hydrochloride): 0.31% | Impurity C (%) ([1]; 2 months, hydrochloride): 0.03% | Loss on drying (%) ([1]; 2 months, hydrochloride): 7.2% | Single largest impurity (%) ([1]; 2 months, hydrochloride): 0.02% | Total relevant substances (%) ([1]; 2 months, hydrochloride): 0.44% | content(%) ([1]; 2 months, hydrochloride): 99.1% | (%) Impurity B (%) ([1]; 3 months): 0.00% | Crystal form ([1]; 3 months): unchanged | Impurity C (%) ([1]; 3 months): 0.02% | appearance ([1]; 3 months): yellow crystalline powder | Enantiomer (%) ([1]; 3 months, hydrochloride): 0.09% | Impurity A (%) ([1]; 3 months, hydrochloride): 0.25% | Loss on drying (%) ([1]; 3 months, hydrochloride): 7.3% | Single largest impurity (%) ([1]; 3 months, hydrochloride): 0.02% | Total relevant substances (%) ([1]; 3 months, hydrochloride): 0.34% | content(%) ([1]; 3 months, hydrochloride): 99.9% | (%) Impurity B (%) ([1]; 6 months): 0.00% | Crystal form ([1]; 6 months): unchanged | Impurity C (%) ([1]; 6 months): 0.02% | appearance ([1]; 6 months): yellow crystalline powder | Enantiomer (%) ([1]; 6 months, hydrochloride): 0.07% | Impurity A (%) ([1]; 6 months, hydrochloride): 0.25% | Loss on drying (%) ([1]; 6 months, hydrochloride): 7.2% | Single largest impurity (%) ([1]; 6 months, hydrochloride): 0.02% | Total relevant substances (%) ([1]; 6 months, hydrochloride): 0.33% | content(%) ([1]; 6 months, hydrochloride): 100.1% | Crystal form (long-term stability test; 0 month): unchanged | ImpurityB(%) (long-term stability test; 0 month): 0.00% | Content (calculated by dried product )(%) (long-term stability test; 0 month, hydrochloride): 98.7% | Enantiomers (%) (long-term stability test; 0 month, hydrochloride): 0.09% | ImpurityA(%) (long-term stability test; 0 month, hydrochloride): 0.32% | ImpurityC(%) (long-term stability test; 0 month, hydrochloride): 0.02% | Loss on drying (%) (long-term stability test; 0 month, hydrochloride): 7.3% | Single largest impurity (%) (long-term stability test; 0 month, hydrochloride): 0.02% | Total relevant substances (%) (long-term stability test; 0 month, hydrochloride): 0.42% | appearance (long-term stability test; 0 month, hydrochloride): yellow crystalline | Crystal form (long-term stability test; 3 months): unchanged | ImpurityB(%) (long-term stability test; 3 months): 0.00% | ImpurityC(%) (long-term stability test; 3 months): 0.02% | Content (calculated by dried product )(%) (long-term stability test; 3 months, hydrochloride): 99.8% | Enantiomers (%) (long-term stability test; 3 months, hydrochloride): 0.09% | ImpurityA(%) (long-term stability test; 3 months, hydrochloride): 0.30% | Loss on drying (%) (long-term stability test; 3 months, hydrochloride): 7.3% | Single largest impurity (%) (long-term stability test; 3 months, hydrochloride): 0.03% | Total relevant substances (%) (long-term stability test; 3 months, hydrochloride): 0.39% | appearance (long-term stability test; 3 months, hydrochloride): yellow crystalline | Crystal form (long-term stability test; 6 months): unchanged | ImpurityB(%) (long-term stability test; 6 months): 0.00% | Content (calculated by dried product )(%) (long-term stability test; 6 months, hydrochloride): 99.7% | Enantiomers (%) (long-term stability test; 6 months, hydrochloride): 0.07% | ImpurityA(%) (long-term stability test; 6 months, hydrochloride): 0.25% | ImpurityC(%) (long-term stability test; 6 months, hydrochloride): 0.02% | Loss on drying (%) (long-term stability test; 6 months, hydrochloride): 7.2% | Single largest impurity (%) (long-term stability test; 6 months, hydrochloride): 0.02% | Total relevant substances (%) (long-term stability test; 6 months, hydrochloride): 0.34% | appearance (long-term stability test; 6 months, hydrochloride): yellow crystalline | Crystal form (long-term stability test; 9 months): unchanged | ImpurityC(%) (long-term stability test; 9 months): 0.02% | Content (calculated by dried product )(%) (long-term stability test; 9 months, hydrochloride): 99.6% | Enantiomers (%) (long-term stability test; 9 months, hydrochloride): 0.08% | ImpurityA(%) (long-term stability test; 9 months, hydrochloride): 0.27% | ImpurityB(%) (long-term stability test; 9 months, hydrochloride): 0.02% | Loss on drying (%) (long-term stability test; 9 months, hydrochloride): 7.3% | Single largest impurity (%) (long-term stability test; 9 months, hydrochloride): 0.02% | Total relevant substances (%) (long-term stability test; 9 months, hydrochloride): 0.38% | appearance (long-term stability test; 9 months, hydrochloride): yellow crystalline | Crystal form (long-term stability test; 12 months): unchanged | ImpurityB(%) (long-term stability test; 12 months): 0.01% | Single largest impurity (%) (long-term stability test; 12 months): 0.02% | Content (calculated by dried product )(%) (long-term stability test; 12 months, hydrochloride): 99.7% | Enantiomers (%) (long-term stability test; 12 months, hydrochloride): 0.07% | ImpurityA(%) (long-term stability test; 12 months, hydrochloride): 0.26% | ImpurityC(%) (long-term stability test; 12 months, hydrochloride): 0.03% | Loss on drying (%) (long-term stability test; 12 months, hydrochloride): 7.4% | Total relevant substances (%) (long-term stability test; 12 months, hydrochloride): 0.36% | appearance (long-term stability test; 12 months, hydrochloride): yellow crystalline | Crystal form (long-term stability test; 18 months): unchanged | ImpurityB(%) (long-term stability test; 18 months): 0.00% | Single largest impurity (%) (long-term stability test; 18 months): 0.02% | Content (calculated by dried product )(%) (long-term stability test; 18 months, hydrochloride): 100.7% | Enantiomers (%) (long-term stability test; 18 months, hydrochloride): 0.07% | ImpurityA(%) (long-term stability test; 18 months, hydrochloride): 0.30% | ImpurityC(%) (long-term stability test; 18 months, hydrochloride): 0.02% | Loss on drying (%) (long-term stability test; 18 months, hydrochloride): 7.2% | Total relevant substances (%) (long-term stability test; 18 months, hydrochloride): 0.36% | appearance (long-term stability test; 18 months, hydrochloride): yellow crystalline | Crystal form (long-term stability test; 24 months): unchanged | Enantiomers (%) (long-term stability test; 24 months): 0.08% | ImpurityB(%) (long-term stability test; 24 months): 0.00% | ImpurityC(%) (long-term stability test; 24 months): 0.02% | Single largest impurity (%) (long-term stability test; 24 months): 0.02% | Content (calculated by dried product )(%) (long-term stability test; 24 months, hydrochloride): 99.1% | ImpurityA(%) (long-term stability test; 24 months, hydrochloride): 0.30% | Loss on drying (%) (long-term stability test; 24 months, hydrochloride): 7.2% | Total relevant substances (%) (long-term stability test; 24 months, hydrochloride): 0.37% | appearance (long-term stability test; 24 months, hydrochloride): yellow crystalline | Crystal form (long-term stability test; 36 months): unchanged | ImpurityC(%) (long-term stability test; 36 months): 0.02% | Single largest impurity (%) (long-term stability test; 36 months): 0.02% | Content (calculated by dried product )(%) (long-term stability test; 36 months, hydrochloride): 99.5% | Enantiomers (%) (long-term stability test; 36 months, hydrochloride): 0.06% | ImpurityA(%) (long-term stability test; 36 months, hydrochloride): 0.31% | ImpurityB(%) (long-term stability test; 36 months, hydrochloride): 0.02% | Loss on drying (%) (long-term stability test; 36 months, hydrochloride): 7.2% | Total relevant substances (%) (long-term stability test; 36 months, hydrochloride): 0.43% | appearance (long-term stability test; 36 months, hydrochloride): yellow crystalline
